Article PMC5321434, “Dihydrobenz[e][1,4]oxazepin-2(3H)-ones, a new anthelmintic chemotype immobilising whipworm and reducing infectivity in vivo” (PLoS Neglected Tropical Diseases, 2017)
Where two headings read alike, the source gives them in different places. Each block holds one compound with its values, some of them ahead of it.

Tests used:
[1] = test system: un-embryonated T. muris eggs; assay: Embryonation assay; parameters: species or system Trichuris muris; conditions: resynthesised compound, activity on T. muris embryonation (Yes/No)
Method: To assess whether the dihydrobenzoxazepinone compounds could also prevent embryonation, 100 un-embryonated eggs were treated with OX02983 and OX03153 at 100μM for 56 days in the dark at room temperature, then examined under an Olympus SD-ILK microscope for signs of embryonation.

[2] = test system: adult T. muris; assay: Ex vivo adult T. muris automated motility assay (primary/secondary screen at 100 μM and dose-response); parameters: species or system Trichuris muris
Outline: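 Motility scored after 24 h (37 °C, 5% CO2) by automated imaging of pixel intensity variance, one worm per well, four weekly biological replicates. Worms came from SCID mice infected orally with 200 eggs, harvested day 35; screening at 100 μM final in RPMI-1640/antibiotics, 1% DMSO; curves fitted with four-parameter log-logistic model.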

[3] = WST-8 cytotoxicity assay; assay type: cell-based, mouse; conditions: mouse, CMT-93 rectal epithelial cells; resynthesised compound, WST-8 cytotoxicity; read-out: ResynCytotoxityWST-8(EC50uM)
Method: CMT-93 murine rectal epithelial cells were maintained in Dulbecco's Modified Eagle's Medium (DMEM) with 10% fetal calf serum (FCS) and 1% penicillin-streptomycin solution (10,000U/ml). Cells were plated in 96-well tissue culture plates at a density of 2x10^2 cells per well in a volume of 100μl, and cultured for 96 hours (37°C, 5% CO2) until reaching 30% confluence. The growth medium was removed and replaced with treatment media (DMEM, 1% FCS, 1% penicillin-streptomycin solution, 100μl assay volume) supplemented with vehicle alone (DMSO), test compounds or chlorpromazine, a positive control for cytotoxicity (final concentrations from 0 to 100μM). Maximum vehicle concentration for all compounds was 0.5% DMSO. Cells were cultured with the test compounds for 72 hours before cytotoxicity measurement. The WST-8 assay was performed using the Cell Counting Kit– 8 (Sigma Aldrich # 96992). 10μl of the CCK-8 solution was added to each well, plates were incubated for a further 2 hours, before absorbance was measured at 450nm using a microplate reader. This assay measures the ability of metabolically active cells to reduce a water-soluble formazan dye. Results were analysed using GraphPad Prism and fitted using a log-logistic model.

[4] = test system: embryonated T. muris eggs; assay: In vivo establishment of infection by compound-treated embryonated eggs; parameters: species or system Trichuris muris; conditions: resynthesised compound, activity on T. muris egg infectivity (Yes/No)
Method: 100 infective embryonated eggs were incubated with water, water plus DMSO vehicle, or test compounds at a final concentration of 100μM for 14 days at room temperature. Eggs were then washed, re-suspended in water and 30 eggs given to a mouse via oral gavage. At day 15 post-infection, mice were culled and the number of worms present in the caecae and colon was counted. One data point was excluded: a water control individual mouse where there were technical difficulties with the oral gavage leading to the mouse regurgitating some of the T. muris eggs. It was ear marked at day of gavage and removed from the analysis.
We collected data using the same experimental design on different occasions, these are referred to as batches. Data were obtained from three batches (DMSO and water controls, batches [A,B,C]) or two batches (OX02983 [A,C], OX03153 [B,C]) with the total number of mice used, n, as follows: DMSO: 14, water: 16, OX02983: 10, OX03153: 12. The data were analysed by 2-way ANOVA (worms ~ treatment + batch + treatment * batch). There was no significant interaction effect (P = 0.14) or effect of batch (P = 0.47). We therefore combined the data from the three batches. […] We then conducted a post-hoc test using Tukey’s honest significant difference test.

[5] = Neutral red cytotoxicity assay; assay type: cell-based, mouse; conditions: mouse, CMT-93 rectal epithelial cells; resynthesised compound, neutral red cytotoxicity; read-out: ResynCytotoxicityNeutralRed(EC50uM)
Method: CMT-93 murine rectal epithelial cells were maintained in Dulbecco's Modified Eagle's Medium (DMEM) with 10% fetal calf serum (FCS) and 1% penicillin-streptomycin solution (10,000U/ml). Cells were plated in 96-well tissue culture plates at a density of 2x10^2 cells per well in a volume of 100μl, and cultured for 96 hours (37°C, 5% CO2) until reaching 30% confluence. The growth medium was removed and replaced with treatment media (DMEM, 1% FCS, 1% penicillin-streptomycin solution, 100μl assay volume) supplemented with vehicle alone (DMSO), test compounds or chlorpromazine, a positive control for cytotoxicity (final concentrations from 0 to 100μM). Maximum vehicle concentration for all compounds was 0.5% DMSO. Cells were cultured with the test compounds for 72 hours before cytotoxicity measurement. Following the WST-8 assay, the medium was removed, cells were washed with 100μl PBS and then 100μl of neutral red medium (DMEM, 1% FBS and 33μg/ml neutral red dye (Sigma Aldrich #N2889) were added to each well, followed by incubation for a further 2 hours. The neutral red medium was removed, cells washed with 100μl of PBS and 100μl of destain solution (50% ethanol, 49% distilled water and 1% glacial acetic acid) were added. Each assay plate was shaken rapidly for 10 minutes before absorbance was measured at 540nm using a microplate reader. This assay measures the ability of living cells to actively take up the neutral red dye. Results were analysed using GraphPad Prism and fitted using a log-logistic model.

[6] = test system: Ascaris; parameters: method as in PMID 18430913; conditions: annual treatment; cited from earlier work
[7] = test system: T. trichiura; conditions: single doses of benzimidazoles; cited from earlier work
[8] = test system: T. muris L1 larvae; parameters: method as in PMID 23433224; conditions: cited from earlier work
[9] = test system: L3/L4 and adult T. muris; parameters: method as in PMID 25261877; conditions: 200μg/ml (678μM); cited from earlier work
[10] = test system: T. muris L4 larvae; parameters: method as in PMID 21889548; conditions: maximum concentration tested 200μg/ml or 229μM; cited from earlier work

EC50 ([2]; Trichuris muris, resynthesised compound, adult T. muris paralysis, read-out: ResynActivityTmurisAdultParalysis(EC50uM)): 57 µM
Compound: Cc1ccc(CN2C(=O)COCc3cc(-c4cccnc4)ccc32)cc1 [Compound 5]
ResynActivityTmurisEmbryonation [1]: No | COMBINED_SCREEN_ACTIVITY ([2]; combined primary and secondary screen minus log fold change in movement, adult T. muris, 100 μM): 10.5493 | PRIMARY_SCREEN_MINUS_LOG_FOLD_CHANGE_MOVEMENT ([2]; primary screen, adult T. muris motility, 100 μM): 10.5493 | EC50 at 72 h [3]: > 100 µM | ResynActivityTmurisEggInfectivity [4]: No | EC50 at 72 h [5]: > 100 µM

Compound: COC(=O)Nc1nc2ccc(C(=O)c3ccccc3)cc2[nH]1 [Mebendazole]
Cure rate, Ascaris [6]: up to 95% | Cure rate for infection with T. trichiura [7]: 36% | Activity against T. muris L1 larvae ([8]; maximum concentration tested 50μg/ml or 169μM): not active | Activity against L3/L4 and adult T. muris [9]: active

Compound: Ivermectin
Activity against T. muris L1 larvae ([8]; maximum concentration tested 50μg/ml or 57μM): not active | Activity against T. muris L4 larvae [10]: not active
